# Test results reported in patent EP1171607B1, “STREPTOKINASE FRAGMENTS AND THEIR USE FOR INHIBITING CELL DEATH” (Rabkin, Simon W., priority 1999, dated 2000).
# Where no end group is shown, it is not given here.
# Experiments:
# TF-1 = TF-1 starved 30 hours in 1% fetal calf serum; 20 µg/ml peptide
# Method: (§1) The hematopoietic, growth factor dependent cell lines, M07E and TF-1 (Mijajima, CDNAX Research Institute, Palo Alto, California), were starved for 30 hours in DMEM containing 1% fetal calf serum (Hyclone, Logan, Utah) in the presence or absence of 20 µg/ml of the 20mer peptide (SEQ. ID NO. 6). Cell viability was measured by one of two methods, trypan blue exclusion or ^3H-thymidine incorporation (Alai et al., J. Biol. Chem. 267:18021-18025, 1992).
# M07E = M07E starved 30 hours in 1% fetal calf serum; 20 µg/ml peptide
# Method: as §1
sequence,measurement,setting,value
SVDVEYTQFTDFRGKLTKLL [Peptide 20mer],TRYPAN BLUE COUNTS (% VIABILITY),TF-1,29 ± 1%
same,TRYPAN BLUE COUNTS (% VIABILITY),M07E,20 ± 0.5%
